Where two headings read alike, the source gives them in different places.
Test system: α7 integrin promoter
Assay: muscle cell-based assay: α7βgal+/− myoblasts/myotubes, LacZ reporter, β-galactosidase cleavage of FDG
Design: species or system mouse
Conditions: for EC50: Mus musculus, read-out: Fit LogAC50 (converted)
Protocol: An α7 integrin null mouse was produced in which exon 1 of the gene encoding the α7 integrin was replaced by the LacZ reporter. In these mice, all the transcriptional regulatory elements of the α7 integrin promoter were retained, allowing β-galactosidase to report expression of 7 integrin. A primary myoblast cell line (designated α7βgal^+/−) isolated from 10 day old α7^+/− pups were analyzed for the ability of β-galactosidase to report α7 integrin expression. α7βgal^+/− myoblasts were differentiated and subjected to X-gal staining and western analysis (FIGS. 1A and 1B).
The activity of the α7 integrin promoter was measured by β-galactosidase cleavage of the non-fluorescent compound fluorescein di-β-D-galactopyranoside (FDG) to fluorescein. This assay was used to screen compound libraries to identify molecules that up-regulate α7 integrin expression in muscle.
Also evaluated was the effect of various isoforms of laminin and the ligand for α7β1 integrin on integrin expression. Positive hits were subjected to dose-response analysis, western analysis and a myostatin counterscreen (a negative regulator of muscle growth).

[1] = given as log AC50 (negative values)
[2] = curve class number, key not given
[3] = curve fit, activity at zero concentration

Row | Compound | EC50 [1] [µM] | Score (Table 12 compound data) | Fit Curve Class [2] | Fit HillSlope (curve fit) | Fit Zero Activity [%] [3] [%] | Fit Infinite Activity [%] (curve fit, activity at infinite concentration) | Fit LogAC50 [1] | Fit Curve Class | Fit HillSlope | Fit Zero Activity [%] | Score | EC50 [µM]
1 | CN(C#N)c1nccc(-c2cccs2)n1 [Compound 190] | 11.2 | 42 | 2.1 | 2.0937 | −28.9068 | – | – | – | – | – | – | –
2 | O=Cc1cnc(N2CCCCC2)s1 [Compound 191] | 11.2 | 42 | 2.1 | 4.9549 | −19.3188 | – | – | – | – | – | – | –
3 | Nc1nccc(-c2ccc(-n3cnc4ccccc43)cc2)n1 [Compound 192] | 11.2 | 42 | 2.2 | 4.095 | 2.4789 | – | – | – | – | – | – | –
4 | COc1cc2c(cc1OC)C(NC(=O)C(F)(F)F)C/C2=N\O (stereo not shown) [Compound 193] | 11.2 | 42 | 2.1 | 4.095 | 2.547 | – | – | – | – | – | – | –
5 | COc1ccc(N2CCN(CCC3Oc4cc([N+](=O)[O-])ccc4NC3=O)CC2)cc1 (stereo not shown) [Compound 194] | – | 42 | 2.2 | 1.7137 | −2.9581 | 73.9084 | −5.05 | – | – | – | – | –
6 | N#Cc1ccc(OCC(O)CS(=O)(=O)c2ccccc2)cc1 (stereo not shown) [Compound 195] | 10 | 42 | 2.1 | 4.045 | −9.8792 | – | – | – | – | – | – | –
7 | Cc1ccccc1C(=O)Nc1nnc(SC(C)C)s1 [Compound 196] | 10 | 42 | 2.2 | 2.8473 | −0.5091 | – | – | – | – | – | – | –
8 | CC(=O)c1cccc(NC(=O)C(=O)Nc2cccc3ccccc23)c1 [Compound 197] | 8.91 | 42 | 2.2 | 0.9 | 1.5 | – | – | – | – | – | – | –
9 | Cc1cc(C)nc(NC(=O)c2ccc(Cl)cc2Cl)n1 [Compound 198] | 10 | 42 | 2.2 | 4.9549 | 1.0914 | – | – | – | – | – | – | –
10 | CC(C)N(CCO)C(=O)CCc1nnc(CCCc2ccccc2)o1 [Compound 199] | 12.6 | 42 | 2.2 | 1.2876 | 0.1862 | – | – | – | – | – | – | –
11 | c1ccc(CN2CCCC3(CCCN(Cc4nc(CC5CC5)no4)C3)C2)cc1 (stereo not shown) [Compound 200] | 8.91 | 42 | 2.1 | 1.4781 | −42.0662 | – | – | – | – | – | – | –
12 | Cn1c(=O)c2c(nc(Sc3ncnn3CC(=O)NC3CCCCC3)n2C)n(C)c1=O [Compound 201] | 11.2 | 42 | 2.1 | 2.3531 | −19.8816 | – | – | – | – | – | – | –
13 | NS(=O)(=O)c1ccc(NC(=O)Nc2ccc(Cl)cc2)cc1 [Compound 202] | – | – | – | – | – | – | – | 2.2 | 1.8617 | – | – | –
14 | CC1=C(C#N)C(=O)N(C)C(=O)/C1=C\NNc1ccc(F)cc1 [Compound 203] | 7.08 | 42 | 2.1 | 1.4781 | −47.2995 | – | – | – | – | – | – | –
15 | CCS(=O)(=O)N1CCN(c2ccc([N+](=O)[O-])c(NCC3CCCO3)c2)CC1 (stereo not shown) [Compound 204] | 10 | 42 | 2.2 | 3.5722 | 0.4864 | – | – | – | – | – | – | –
16 | O=C(NC(=S)NCCC1=CCCCC1)c1ccc(Br)o1 [Compound 205] | 7.08 | 42 | 2.1 | 1.4781 | −40.2978 | – | – | – | – | – | – | –
17 | CCCC(=O)Nc1ccccc1NC(=O)c1ccc(OCC)cc1 [Compound 206] | 11.2 | 42 | 2.1 | 4.095 | 13.9528 | – | – | – | – | – | – | –
18 | NS(=O)(=O)c1ccc(NC(=O)c2ccc(CNS(=O)(=O)c3cc(C(F)(F)F)ccc3Cl)cc2)cc1 [Compound 207] | 10 | 42 | 2.2 | 2.5334 | 0.1699 | – | – | – | – | – | – | –
19 | COc1ccc(CN2CCNC(=O)C2CC(=O)NCCc2c[nH]c3ccccc23)c(OC)c1 (stereo not shown) [Compound 208] | 10 | 42 | 2.2 | 3.1925 | −9.1413 | – | – | – | – | – | – | –
20 | O=Cc1cn(Cc2ccc(F)cc2Cl)c2ccccc12 [Compound 209] | – | – | – | – | – | – | – | 2.1 | 4.095 | 12.1779 | 42 | 15.8
21 | Cc1ccc(-c2nc(C)sc2CC(=O)OCC(=O)Nc2c(F)cccc2F)cc1 [Compound 210] | 12.6 | 42 | 2.1 | 4.9549 | 11.9156 | – | – | – | – | – | – | –
22 | CNC(=O)/C(=C\c1cccc(Oc2ccccc2)c1)NC(=O)c1ccccc1 [Compound 211] | 11.2 | 42 | 2.1 | 1.1341 | −0.265 | – | – | – | – | – | – | –
23 | O=S(=O)(NCC(c1ccco1)N1CCOCC1)c1ccc(Cl)cc1 (stereo not shown) [Compound 212] | 14.1 | 42 | 2.1 | 4.5045 | 9.0119 | – | – | – | – | – | – | –
24 | C=CCc1c(C)nc(-c2ccccc2)nc1N/N=C/c1ccccc1 [Compound 213] | 11.2 | 42 | 2.1 | 1.2876 | −1.0122 | – | – | – | – | – | – | –

Source: US10028992B2, “Methods of treating muscular dystrophy” (BOARD OF REGENTS OF THE NEVADA SYSTEM OF HIGHER EDUCATION …, priority 2012, dated 2018)
